# Experimental data reported in patent publication US12678427B2, “Combination therapy having antioxydant properties” (GENFIT, priority 2019, dated 2026).
# Tested on: Nrf2-ARE-mediated transcription
# Assay: ARE Reporter - HepG2 cell line luciferase assay
# Format: cell-based, human
# Conditions: ARE reporter HepG2 cells, TZ 1 μM, ELA 3 μM, 18 h exposure, significant = fold induction over DMSO above 2 and p<0.05
# Protocol: The ARE Reporter—Hep G2 cell line is designed to monitor Nrf2 antioxidant response pathway. The cell contains a firefly luciferase gene under the control of ARE (antioxidant response element) stably integrated into Hep G2 cells.
# ARE reporter—HepG2 cells (BPS Bioscience, Inc., San Diego, cat #60513) were cultured following manufacturer's instructions. After thawing (BPS thaw medium 1K, cat #60187), cells were cultured in growth-medium (BPS growth medium 1K, cat #79533) and subsequently plated at a density of 40 000 cells per well in a 96-well microplate in 45 μL of assay medium (BPS thaw medium). TZ, ELA and DL-Sulforaphane (Sigma cat #S4441) were dissolved in DMSO and diluted into assay medium. 5 μl of dilution were added on cells to reach a final concentration of 1 μM for TZ and 3 μM for ELA. DL-Sulforaphane was used as a positive control at the dose of 3 μM. After 18 h exposure, luciferase activity was determined. 50 μL of One-Step Luciferase assay system (BPS cat #60690) were added per well and after ~15 min of rocking at room temperature, luminescence was measured using a luminometer.
# Fold induction over DMSO above 2 and with a p-value <0.05 was considered as significant.
structure (smiles),measurement,value
O=C(Nc1ncc([N+](=O)[O-])s1)c1ccccc1O [TZ],activation of Nrf2-antioxidant pathway compared to the untreated condition,induces a significant activation
